Source: patent publication US20210260015A1, “COMPOSITION FOR INHIBITING FAT ACCUMULATION” (National University Corporation Tokyo University of …, priority 2018, published 2021)

Columns and labels:
Assay type in all cases: in vivo, C57BL/6J male mice
[1] = Body weight changes of mice fed test diets for 5 weeks; conditions: conclusion from diet groups, C8 vs C10 and C12
Protocol: (§1) Seven (7)-week-old C57BL/6J male mice (Japan SLC, Inc.) were acclimated with CLEA Rodent Diet CE-2 (manufactured by CLEA Japan, Inc.) for 1 week, and divided into 5 groups (n=9 or 10). Any of feeds having the compositions indicated in Tables 1 and 2, i.e., four types of test diets and a normal diet, was given to the respective groups for 5 weeks. Specifically, as the test diets, MCT diets were prepared by blending MCTs and LCT in a low-carbohydrate high-fat diet feed made based on an AIN-93G standard composition feed, and an LCT diet was prepared by blending LCT (manufactured by Wako Pure Chemical Industries) alone, without MCT, in a low-carbohydrate high-fat diet feed made based on an AIN-93G standard composition feed. […]
(§2) The ingestion amounts of the test diets and the body weight changes during the test period (5 weeks) were measured, and the weights of the various organs including adipose tissues and the plasma levels of ketone bodies were measured at the end of the test period. […] In addition, plasma was collected from the collected blood, and ketone bodies were quantified according to an enzymatic method.

[2] = Weights of adipose tissues 5 weeks after the beginning of ingestion; conditions: conclusion from diet groups, C8 vs C10 or C12
Protocol: as §1, §2

[3] = Plasma levels of ketone bodies 5 weeks after the beginning of ingestion (enzymatic method); conditions: conclusion from diet groups
Protocol: as §1, §2

CCCCCCCC(=O)OCC(COC(=O)CCCCCCC)OC(=O)CCCCCCC [caprylic acid triglyceride (C8), caprylic acid triglyceride]
effect for suppressing body weight gain depending on the number of carbon atoms of the constituent fatty acid of MCT [1]: has a higher effect for suppressing body weight gain than those of capric acid triglyceride (C10) and lauric acid triglyceride (C12)
effect for suppressing neutral fat accumulation depending on the number of carbon atoms of the constituent fatty acid of MCT [2]: has a higher effect for suppressing neutral fat accumulation than that of capric acid triglyceride (C10) or lauric acid triglyceride (C12)
ketone body production, C8 vs C10 or C12 triglyceride [3]: produces ketone bodies more than those produced by capric acid triglyceride (C10) or lauric acid triglyceride (C12)
